Measurements from ChEMBL document CHEMBL1129007, “The design and synthesis of novel adenosine agonists” (Bioorg Med Chem Lett, 1996).

Key:
[1] = Compound was evaluated for the maximal inhibition of (-)-isoproterenol stimulated cAMP accumulation in DDT-1 MF-2 cells; type: functional, Cricetulus griseus
[2] = molecular target: T1, Adenosine receptor A1 (Homo sapiens, UniProt P30542); test: Compound was evaluated for the Adenosine A1 receptor agonist potency.; type: functional, Cricetulus griseus
T1 sequence (P30542 whole entry): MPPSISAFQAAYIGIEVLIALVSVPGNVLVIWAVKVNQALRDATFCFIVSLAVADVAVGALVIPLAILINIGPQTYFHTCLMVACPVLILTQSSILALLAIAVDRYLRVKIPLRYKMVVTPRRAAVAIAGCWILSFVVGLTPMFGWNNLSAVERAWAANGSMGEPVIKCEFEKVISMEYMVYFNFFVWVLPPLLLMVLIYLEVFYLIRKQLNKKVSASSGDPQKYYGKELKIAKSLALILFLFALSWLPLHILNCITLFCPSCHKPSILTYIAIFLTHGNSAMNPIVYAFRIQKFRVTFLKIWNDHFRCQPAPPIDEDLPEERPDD

EC50 [2] [nM]	SMILES	Max inhibition [1] [%]
0.81	OC[C@H]1O[C@@H](n2cnc3c(N[C@H]4CC5CC4C4OC54)ncnc32)[C@H](O)[C@@H]1O (stereo not given in full)	81
–	OC[C@H]1O[C@@H](n2cnc3c(NC4CCCC4)ncnc32)[C@H](O)[C@@H]1O [N6-CYCLOPENTYLADENOSINE]	80
10	OC[C@H]1O[C@@H](n2cnc3c(N[C@@H]4CC5CC4C4OC54)ncnc32)[C@H](O)[C@@H]1O (stereo not given in full)	82
